Results: patent US20230146455A1, “TREATMENT OF INFLAMMATORY DISEASES WITH PEPTIDES AND PHARMACEUTICAL COMPOSITIONS” (Yuyu Pharma, Inc., priority 2020, published 2023)
Values joined by “and” are separate entries in the source; they are usually repeats but may differ in a detail not shown here. Equal entries are not always repeated. Where a SMILES comes first, the peptide text is derived from it. [ ]: non-standard residue; d: D form. Hyp = O=C(O)[C@@H]1C[C@@H](O)CN1

Tested on: human PBMCs
Assay: PBMC cell counts (total, live, viability; trypan blue, Countess) with and without LPS and test articles (Example 9)
Format: cell-based
Procedure: Treatment Human PBMCs were pretreated with YY-101, YDE-011 and YDE-043 or reference compound; Xiidra® at various concentration (ranging from 1 nM to 100 uM) for 2 h before stimulation. An equal volume of 0.5% DMSO was used as a vehicle control. Then, the cells were treated with LPS at 5 ug/ml. The supernatants from treated cells were harvested at 24 h and placed in a 96 well for Luminex cytokine & chemokine profiling using a Luminex 200 multiplex assay (Luminex; R&D system, USA).
The main study arm with triplicate wells per group in a 24-well plate: • 1. Blank • 2. PBMC: 0.5% DMSO • 3. PBMC+LPS (5 ug/ml) • 4. PBMC+YY-101 100 uM • 5. PBMC+YY-101 10 uM • 6. PBMC+YY-101 1 uM • 7. PBMC+YY-101 0.1 uM • 8. PBMC+YY-101 0.01 uM • 9. PBMC+LPS (5 ug/ml)+Xiidra®100 uM • 10. PBMC+LPS (5 ug/ml)+Xiidra® 10 uM • 11. PBMC+LPS (5 ug/ml)+Xiidra® 1 uM • 12. PBMC+LPS (5 ug/ml)+Xiidra®0.1 uM • 13. PBMC+LPS (5 ug/ml)+Xiidra®0.01 uM • 14. PBMC+LPS (5 ug/ml)+Xiidra®0.001 uM • 15. PBMC+LPS (5 ug/ml)+YY-101 100 uM • 16. PBMC+LPS (5 ug/ml)+YY-101 10 uM • 17. PBMC+LPS (5 ug/ml)+YY-101 1 uM • 18. PBMC+LPS (5 ug/ml)+YY-101 0.1 uM • 19. PBMC+LPS (5 ug/ml)+YY-101 0.01 uM • 20. PBMC+LPS (5 ug/ml)+YY-101 0.001 uM • 21. PBMC+LPS (5 ug/ml)+YDE-011 100 uM • 22. PBMC+LPS (5 ug/ml)+YDE-011 10 uM • 23. PBMC+LPS (5 ug/ml)+YDE-011 1 uM • 24. PBMC+LPS (5 ug/ml)+YDE-011 0.1 uM • 25. PBMC+LPS (5 ug/ml)+YDE-011 0.01 uM • 26. PBMC+LPS (5 ug/ml)+YDE-011 0.001 uM • 27. PBMC+LPS (5 ug/ml)+YDE-043 100 uM • 28. PBMC+LPS (5 ug/ml)+YDE-043 10 uM • 29. PBMC+LPS (5 ug/ml)+YDE-043 1 uM • 30. PBMC+LPS (5 ug/ml)+YDE-043 0.1 uM • 31. PBMC+LPS (5 ug/ml)+YDE-043 0.01 uM • 32. PBMC+LPS (5 ug/ml)+YDE-043 0.001 uM
The number of PBMCs was measured after 24 hr of treatment. The culture both and trypan blue were diluted 1:1 and 10 ul was added to Countess cell counting chamber (Thermo fisher, USA). The number of PBMCs was measured using a Countess automated cell counter (Thermo fisher, USA).

[1] = PBMC + LPS(5 ug/ml) + compound 0.001 uM, 24 hr
[2] = PBMC + LPS(5 ug/ml) + compound 0.01 uM, 24 hr
[3] = PBMC + LPS(5 ug/ml) + compound 0.1 uM, 24 hr
[4] = PBMC + LPS(5 ug/ml) + compound 1 uM, 24 hr
[5] = PBMC + LPS(5 ug/ml) + compound 10 uM, 24 hr
[6] = PBMC + LPS(5 ug/ml) + compound 100 uM, 24 hr
[7] = PBMC + LPS(5 ug/ml) + test article 0.001 uM, Mean
[8] = PBMC + LPS(5 ug/ml) + test article 0.001 uM, single replicates
[9] = PBMC + LPS(5 ug/ml) + test article 0.01 uM, Mean
[10] = PBMC + LPS(5 ug/ml) + test article 0.01 uM, single replicates
[11] = PBMC + LPS(5 ug/ml) + test article 0.1 uM, Mean
[12] = PBMC + LPS(5 ug/ml) + test article 0.1 uM, single replicates
[13] = PBMC + LPS(5 ug/ml) + test article 1 uM, Mean
[14] = PBMC + LPS(5 ug/ml) + test article 1 uM, single replicates
[15] = PBMC + LPS(5 ug/ml) + test article 10 uM, Mean
[16] = PBMC + LPS(5 ug/ml) + test article 10 uM, single replicates

For CC(C)C[C@H](NC(=O)[C@H](CCC(N)=O)NC(=O)CNC(=O)[C@@H]1C[C@@H](O)CN1)C(=O)NCC(=O)O [YDE-043] (H-[Hyp]GQLG-OH; N-terminus and C-terminus assumed), the Live cell [1] was 5.0 ± 0.5 10^5/ml, the Total cell [1] was 6.3 ± 0.7 10^5/ml and the Live cell [2] was 5.4 ± 0.6 10^5/ml. For the same compound, the Total cell [2] was 6.9 ± 0.4 10^5/ml, the Live cell [3] was 5.4 ± 0.2 10^5/ml and the Total cell [3] was 6.6 ± 0.1 10^5/ml. For the same compound, the Live cell [4] was 5.3 ± 0.3 10^5/ml, the Total cell [4] was 6.8 ± 0.6 10^5/ml and the Live cell [5] was 5.4 ± 0.1 10^5/ml. For the same compound, the Total cell [5] was 6.4 ± 0.1 10^5/ml, the Live cell [6] was 6.3 ± 0.1 10^5/ml and the Total cell [6] was 7.6 ± 0.6 10^5/ml. The Live cell [7] was 5.0 10^5/ml, the “Live cell (10^5/ml)” value [7] was 5.0 10^5/ml and the “Live cell, Mean” value [7] was 5.0 10^5/ml. For the same compound, the Live cell (PBMC + LPS(5 ug/ml) + test article 0.001 uM, individual replicates) was 4.4 10^5/ml and 6.0 10^5/ml and 4.6 10^5/ml, the Live cell (PBMC + LPS(5 ug/ml) + test article 0.001 uM, individual replicates (1st, 2nd, 3rd)) was 4.4 10^5/ml and 6.0 10^5/ml and 4.6 10^5/ml and the Live cell [8] was 4.4 10^5/ml and 6.0 10^5/ml and 4.6 10^5/ml. The “Live cell (10^5/ml)” value [8] was 4.4 10^5/ml and 6.0 10^5/ml and 4.6 10^5/ml, the Live cell (PBMC + LPS(5 ug/ml) + test article 0.001 uM, single replicates (1st, 2nd, 3rd)) was 4.4 10^5/ml and 6.0 10^5/ml and 4.6 10^5/ml and the Live cell [9] was 5.4 10^5/ml. The “Live cell (10^5/ml)” value [9] was 5.4 10^5/ml, the “Live cell, Mean” value [9] was 5.4 10^5/ml and the Live cell (PBMC + LPS(5 ug/ml) + test article 0.01 uM, individual replicates) was 4.5 10^5/ml and 6.6 10^5/ml and 5.0 10^5/ml. For the same compound, the Live cell (PBMC + LPS(5 ug/ml) + test article 0.01 uM, individual replicates (1st, 2nd, 3rd)) was 4.5 10^5/ml and 6.6 10^5/ml and 5.0 10^5/ml, the Live cell [10] was 4.5 10^5/ml and 6.6 10^5/ml and 5.0 10^5/ml and the “Live cell (10^5/ml)” value [10] was 4.5 10^5/ml and 6.6 10^5/ml and 5.0 10^5/ml. For the same compound, the Live cell (PBMC + LPS(5 ug/ml) + test article 0.01 uM, single replicates (1st, 2nd, 3rd)) was 4.5 10^5/ml and 6.6 10^5/ml and 5.0 10^5/ml, the Live cell [11] was 5.4 10^5/ml and the “Live cell (10^5/ml)” value [11] was 5.4 10^5/ml. The “Live cell, Mean” value [11] was 5.4 10^5/ml, the Live cell (PBMC + LPS(5 ug/ml) + test article 0.1 uM, individual replicates) was 5.0 10^5/ml and 5.6 10^5/ml (2×) and the Live cell (PBMC + LPS(5 ug/ml) + test article 0.1 uM, individual replicates (1st, 2nd, 3rd)) was 5.0 10^5/ml and 5.6 10^5/ml (2×). The Live cell [12] was 5.0 10^5/ml and 5.6 10^5/ml (2×), the “Live cell (10^5/ml)” value [12] was 5.0 10^5/ml and 5.6 10^5/ml (2×) and the Live cell (PBMC + LPS(5 ug/ml) + test article 0.1 uM, single replicates (1st, 2nd, 3rd)) was 5.0 10^5/ml and 5.6 10^5/ml (2×). For the same compound, the Live cell [13] was 5.3 10^5/ml, the “Live cell (10^5/ml)” value [13] was 5.3 10^5/ml and the “Live cell, Mean” value [13] was 5.3 10^5/ml. The Live cell (PBMC + LPS(5 ug/ml) + test article 1 uM, individual replicates) was 5.8 10^5/ml and 4.8 10^5/ml and 5.3 10^5/ml, the Live cell (PBMC + LPS(5 ug/ml) + test article 1 uM, individual replicates (1st, 2nd, 3rd)) was 5.8 10^5/ml and 4.8 10^5/ml and 5.3 10^5/ml and the Live cell [14] was 5.8 10^5/ml and 4.8 10^5/ml and 5.3 10^5/ml. For the same compound, the “Live cell (10^5/ml)” value [14] was 5.8 10^5/ml and 4.8 10^5/ml and 5.3 10^5/ml, the Live cell (PBMC + LPS(5 ug/ml) + test article 1 uM, single replicates (1st, 2nd, 3rd)) was 5.8 10^5/ml and 4.8 10^5/ml and 5.3 10^5/ml and the Live cell [15] was 5.4 10^5/ml. The “Live cell (10^5/ml)” value [15] was 5.4 10^5/ml, the “Live cell, Mean” value [15] was 5.4 10^5/ml and the Live cell (PBMC + LPS(5 ug/ml) + test article 10 uM, individual replicates) was 5.2 10^5/ml and 5.4 10^5/ml and 5.6 10^5/ml. For the same compound, the Live cell (PBMC + LPS(5 ug/ml) + test article 10 uM, individual replicates (1st, 2nd, 3rd)) was 5.2 10^5/ml and 5.4 10^5/ml and 5.6 10^5/ml, the Live cell [16] was 5.2 10^5/ml and 5.4 10^5/ml and 5.6 10^5/ml and the “Live cell (10^5/ml)” value [16] was 5.2 10^5/ml and 5.4 10^5/ml and 5.6 10^5/ml.
